In ChEMBL document CHEMBL2074361, “Effect of mdr1a P-glycoprotein gene disruption, gender, and substrate concentration on brain uptake of selected compounds” (Pharm Res, 2001):

Target: ATP-dependent translocase ABCB1 (Mus musculus, UniProt P21447)
Experiment: TP_TRANSPORTER: increase in brain concentration in mdr1a(-/-) mouse
Format: functional, organism-based
Conditions: in vivo

Chain of ATP-dependent translocase ABCB1 (P21447 whole entry): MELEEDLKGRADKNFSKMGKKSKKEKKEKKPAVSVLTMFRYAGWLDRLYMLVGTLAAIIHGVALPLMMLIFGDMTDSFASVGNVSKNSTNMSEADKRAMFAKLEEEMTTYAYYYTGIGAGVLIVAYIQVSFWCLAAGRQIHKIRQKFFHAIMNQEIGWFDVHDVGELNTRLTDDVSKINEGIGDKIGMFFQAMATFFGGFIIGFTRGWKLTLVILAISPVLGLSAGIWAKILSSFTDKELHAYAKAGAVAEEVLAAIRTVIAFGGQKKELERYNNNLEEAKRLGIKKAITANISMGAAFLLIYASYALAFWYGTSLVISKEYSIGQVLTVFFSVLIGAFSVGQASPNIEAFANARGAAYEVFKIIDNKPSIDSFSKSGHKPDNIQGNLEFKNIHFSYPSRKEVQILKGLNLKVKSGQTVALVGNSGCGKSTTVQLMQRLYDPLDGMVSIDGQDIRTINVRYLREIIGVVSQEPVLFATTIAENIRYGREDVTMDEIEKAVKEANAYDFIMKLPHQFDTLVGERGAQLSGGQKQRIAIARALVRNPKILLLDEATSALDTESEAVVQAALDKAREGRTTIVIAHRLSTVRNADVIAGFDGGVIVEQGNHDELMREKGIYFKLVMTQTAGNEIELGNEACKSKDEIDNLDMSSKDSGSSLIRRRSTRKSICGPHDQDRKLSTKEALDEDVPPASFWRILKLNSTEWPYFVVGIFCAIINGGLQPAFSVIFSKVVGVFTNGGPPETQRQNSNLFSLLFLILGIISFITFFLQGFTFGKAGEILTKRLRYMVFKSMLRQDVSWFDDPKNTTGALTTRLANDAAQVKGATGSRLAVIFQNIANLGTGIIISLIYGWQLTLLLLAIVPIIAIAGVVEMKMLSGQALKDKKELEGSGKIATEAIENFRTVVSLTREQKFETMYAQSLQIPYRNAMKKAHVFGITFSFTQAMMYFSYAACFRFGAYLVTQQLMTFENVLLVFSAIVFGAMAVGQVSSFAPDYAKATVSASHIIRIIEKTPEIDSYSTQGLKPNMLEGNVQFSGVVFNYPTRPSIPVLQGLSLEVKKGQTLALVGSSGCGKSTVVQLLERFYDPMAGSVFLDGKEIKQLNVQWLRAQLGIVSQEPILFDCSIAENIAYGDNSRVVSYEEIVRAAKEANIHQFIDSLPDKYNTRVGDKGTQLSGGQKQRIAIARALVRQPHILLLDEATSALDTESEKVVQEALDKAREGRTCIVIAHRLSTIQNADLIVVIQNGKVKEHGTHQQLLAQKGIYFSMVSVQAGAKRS

CN1CC[C@]23c4c5ccc(O)c4O[C@H]2[C@@H](O)C=C[C@H]3[C@H]1C5 [MORPHINE]
Activity: substrate [+]

C=C[C@H]1C[N@@]2CC[C@H]1C[C@@H]2[C@@H](O)c1ccnc2ccc(OC)cc12 [QUINIDINE]
Activity: substrate [+]
